Measurements reported in patent publication US9029405B2, “5-(biphenyl-4-yl)-3-phenyl-1,2,4-oxadiazolyl derivatives as ligands on the sphingosine 1-phosphate(SIP)receptors” (Merck Serono S.A., priority 2010, dated 2015).
Where a name gives a salt, the structure may show the parent alone. Read-outs that look alike come from different tables or passages of the source.

Legend:
S1P1 [1] = biological target: T1, S1P1 (Homo sapiens, UniProt P21453); experiment: Receptor binding assay, [33P]sphingosine 1-phosphate competition, membranes of CHO cells expressing S1P1
How it was run: (§1)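 SPA competition on CHO membranes with [33P]S1P at 30 pM (S1P1) or 15 pM (S1P3), in 50 mM HEPES pH 7.5, 5 mM MgCl2, 100 mM NaCl, 0.4% fatty acid-free BSA, 60 min at RT. Non-specific binding defined by 1000-fold unlabeled S1P; Ki values reported.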
Target sequence in this assay (P21453 whole entry, species assumed): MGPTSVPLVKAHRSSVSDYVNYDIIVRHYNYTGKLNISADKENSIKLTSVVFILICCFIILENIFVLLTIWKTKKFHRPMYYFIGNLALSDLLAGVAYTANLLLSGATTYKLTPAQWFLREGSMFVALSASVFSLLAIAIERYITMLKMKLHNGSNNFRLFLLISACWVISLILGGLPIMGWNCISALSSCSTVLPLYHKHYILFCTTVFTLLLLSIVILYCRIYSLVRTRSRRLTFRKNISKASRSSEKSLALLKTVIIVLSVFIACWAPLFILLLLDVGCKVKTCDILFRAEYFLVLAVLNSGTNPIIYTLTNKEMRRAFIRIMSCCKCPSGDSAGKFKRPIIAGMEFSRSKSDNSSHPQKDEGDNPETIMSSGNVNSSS

S1P3 = S1P3 (Homo sapiens, UniProt Q99500); experiment: Receptor binding assay, [33P]sphingosine 1-phosphate competition, membranes of CHO cells expressing S1P3
How it was run: as §1

S1P1 [2] = biological target: T1, S1P1; experiment: S1P1 internalization assay in S1P1-U2OS cells (cell imaging); type: cell-based; set-up: host or cells: U2OS (human bone osteosarcoma epithelial cells); conditions: U2OS cells expressing S1P1-EGFP, 384-well format
How it was run: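 U2OS cells stably expressing human S1P1-EGFP, serum-starved 2 h in medium with 0.1% fatty-acid-free BSA, then compound 1 h at 37° C. After fixation and Hoechst nuclear stain, receptor internalization imaged as EGFP spot count per nucleus.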
Target sequence in this assay (P21453 whole entry): as the sequence (P21453 whole entry, species assumed) above

[3] = 384 well plate, read-out: S1P1 Binding Ki [M] (384 well plate)
[4] = 384 well plate, read-out: S1P3 Binding Ki [M] (384 well plate)

S1P3, sequence (Q99500 whole entry, species assumed): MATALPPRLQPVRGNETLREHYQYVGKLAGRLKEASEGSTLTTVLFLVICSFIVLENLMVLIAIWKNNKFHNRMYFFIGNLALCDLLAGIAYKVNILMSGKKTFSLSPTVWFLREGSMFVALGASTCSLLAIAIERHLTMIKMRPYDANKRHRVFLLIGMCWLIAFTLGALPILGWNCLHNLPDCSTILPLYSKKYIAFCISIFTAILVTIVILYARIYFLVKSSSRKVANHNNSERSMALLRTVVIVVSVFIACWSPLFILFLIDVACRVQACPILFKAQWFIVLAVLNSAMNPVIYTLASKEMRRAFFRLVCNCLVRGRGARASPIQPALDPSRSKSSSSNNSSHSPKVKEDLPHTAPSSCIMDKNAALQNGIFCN

SMILES	Ki (S1P1 [1]; 96 well plate, read-out: S1P1 Binding Ki [M] (96 well plate))	Ki (S1P1 [1]; [3])	Ki (S1P3; 96 well plate, read-out: S1P3 Binding Ki [M] (96 well plate))	Ki (S1P3; [4])	EC50 (S1P1 [2])
COCc1cc(-c2nc(-c3ccc(CN(C)C(C)(C)C(=O)O)c(F)c3)no2)ccc1-c1ccccc1C [Example 43, N-(2-fluoro-4-{5-[2-(methoxymethyl)-2′-methylbiphenyl-4-yl]-1,2,4-oxadiazol-3-yl}benzyl)-N,2-dimethylalanine, hydrochloride salt]	6.3e-10 M	2.32e-09 M	3.15e-06 M	8.4e-07 M	24.1 nM
COCc1cc(-c2nc(-c3ccc(CN(C)[C@@H](C)C(=O)O)c(F)c3)no2)ccc1-c1ccccc1C [Example 44, N-(2-fluoro-4-{5-[2-(methoxymethyl)-2′-methylbiphenyl-4-yl]-1,2,4-oxadiazol-3-yl}benzyl)-N-methylalanine, hydrochloride salt]	–	1.58e-09 M	–	8.69e-07 M	6.29 nM
Cc1ccccc1-c1ccc(-c2nc(-c3ccc(C(CO)NCC(=O)O)cc3)no2)cc1C(F)(F)F (centres unmarked) [Example 52, 2-(2-Hydroxy-1-(4-(5-(2′-methyl-2-(trifluoromethyl)biphenyl-4-yl)-1,2,4-oxadiazol-3-yl)phenyl)ethylamino)acetic acid]	–	3.76e-09 M	–	1.08e-06 M	10.2 nM
COCc1cc(-c2nc(-c3ccc(CN(C)C4(C(=O)O)CCCC4)cc3)no2)ccc1-c1ccccc1C [Example 53, 1-((4-(5-(2-(methoxymethyl)-2′-methylbiphenyl-4-yl)-1,2,4-oxadiazol-3-yl)benzyl)(methyl)amino)cyclopentanecarboxylic acid]	–	3.97e-09 M	–	3.64e-06 M	42.2 nM
CC[C@H](NCc1ccc(-c2noc(-c3ccc(-c4ccccc4C)c(C(F)(F)F)c3)n2)cc1)C(=O)O [Example 54, (2S)-2-(4-(5-(2′-methyl-2-(trifluoromethyl)biphenyl-4-yl)-1,2,4-oxadiazol-3-yl)benzylamino)butanoic acid]	–	7.95e-09 M	–	6.69e-06 M	39.7 nM
Cc1ccccc1-c1ccc(-c2nc(-c3ccc(CNC4(C(=O)O)CCCC4)cc3)no2)cc1C(F)(F)F [Example 59]	–	6.83e-09 M	–	> 2e-05 M	44.4 nM
Cc1ccccc1-c1ccc(-c2nc(-c3ccc(CN[C@@H](CCO)C(=O)O)cc3)no2)cc1C(F)(F)F [Example 60]	–	3.46e-09 M	–	1.03e-06 M	24.2 nM
Cc1ccccc1-c1ccc(-c2nc(-c3ccc(CN[C@H](C(=O)O)[C@@H](C)O)cc3)no2)cc1C(F)(F)F [Example 61]	–	4.27e-09 M	–	1.15e-06 M	23.3 nM
Cc1ccccc1-c1ccc(-c2nc(-c3ccc(CNC(C(=O)O)C(C)O)cc3)no2)cc1C(F)(F)F (centres unmarked) [Example 64]	–	6.78e-09 M	–	1.99e-06 M	45.9 nM
Cc1ccccc1-c1ccc(-c2nc(-c3ccc(CNC4(C(=O)O)CCC4)cc3)no2)cc1C(F)(F)F [Example 66]	–	3.86e-09 M	–	9.31e-07 M	27.6 nM
CC[C@@H](C(=O)O)N(C)Cc1ccc(-c2noc(-c3ccc(-c4ccccc4C)c(C(F)(F)F)c3)n2)cc1 [Example 69, (2S)-2-(methyl(4-(5-(2′-methyl-2-(trifluoromethyl)biphenyl-4-yl)-1,2,4-oxadiazol-3-yl)benzyl)amino)butanoic acid]	–	5.2e-09 M	–	4.07e-06 M	49.1 nM
Cc1ccccc1-c1ccc(-c2nc(-c3ccc(CN(C)[C@@H](C)C(=O)O)cc3)no2)cc1C(F)(F)F [Example 70]	–	2.98e-09 M	–	7.53e-07 M	18.8 nM

The remaining lines, values ahead:

Ki (S1P1 [1]; 96 well plate, read-out: S1P1 Binding Ki [M] (96 well plate))	Ki (S1P1 [1]; [3])	Ki (S1P3; 96 well plate, read-out: S1P3 Binding Ki [M] (96 well plate))	Ki (S1P3; [4])	EC50 (S1P1 [2])	SMILES
–	2.68e-09 M	–	4.36e-07 M	30.8 nM	Cc1ccccc1-c1ccc(-c2nc(-c3ccc(CN(C)[C@@H](CO)C(=O)O)c(F)c3)no2)cc1C(F)(F)F [Example 45, N-(2-fluoro-4-{5-[2′-methyl-2-(trifluoromethyl)biphenyl-4-yl]-1,2,4-oxadiazol-3-yl}benzyl)-N-methylserine, hydrochloride salt]
–	7.94e-10 M	–	9.55e-08 M	9.34 nM	Cc1ccccc1-c1ccc(-c2nc(-c3cc(F)cc(CNC(C)(C)C(=O)O)c3)no2)cc1C(F)(F)F [Example 46, N-(3-fluoro-5-{5-[2′-methyl-2-(trifluoromethyl)biphenyl-4-yl]-1,2,4-oxadiazol-3-yl}benzyl)-2-methylalanine, hydrochloride salt]
–	4.26e-09 M	–	1.95e-05 M	39.1 nM	Cc1ccccc1-c1ccc(-c2nc(-c3ccc(CN[C@H](C(=O)O)C(C)C)c(F)c3)no2)cc1C(F)(F)F [Example 47, N-(2-fluoro-4-{5-[2′-methyl-2-(trifluoromethyl)biphenyl-4-yl]-1,2,4-oxadiazol-3-yl}benzyl)valine, hydrochloride salt]
–	4.68e-09 M	–	> 2e-05 M	23.8 nM	Cc1cc(-c2nc(-c3ccc(CNC(C)(C)C(=O)O)c(F)c3)no2)ccc1-c1ccccc1C(F)(F)F [Example 48, N-(2-fluoro-4-{5-[2-methyl-2′-(trifluoromethyl)biphenyl-4-yl]-1,2,4-oxadiazol-3-yl}benzyl)-2-methylalanine, hydrochloride salt]
–	1.06e-09 M	–	9.71e-07 M	13.8 nM	Cc1ccccc1-c1ccc(-c2nc(-c3ccc(CNC(C)(C)C(=O)O)c(F)c3)no2)cc1C(F)(F)F [Example 49, N-(2-fluoro-4-{5-[2′-methyl-2-(trifluoromethyl)biphenyl-4-yl]-1,2,4-oxadiazol-3-yl}benzyl)-2-methylalanine, hydrochloride salt]
–	3.02e-09 M	–	6.61e-07 M	25.8 nM	Cc1ccccc1-c1ccc(-c2nc(-c3ccc(CN(C)[C@@H](C)C(=O)O)c(F)c3)no2)cc1C(F)(F)F [Example 50, N-(2-fluoro-4-{5-[2′-methyl-2-(trifluoromethyl)biphenyl-4-yl]-1,2,4-oxadiazol-3-yl}benzyl)-N-methylalanine, hydrochloride salt]
–	2.2e-09 M	–	8.02e-07 M	16.8 nM	Cc1ccccc1-c1ccc(-c2nc(-c3ccc(CN[C@H](C(=O)O)C(C)C)cc3)no2)cc1C(F)(F)F [Example 55]
–	4.13e-09 M	–	8.54e-06 M	57.8 nM	Cc1ccccc1-c1ccc(-c2nc(-c3ccc(CN(C)C(C)(C)C(=O)O)cc3)no2)cc1C(F)(F)F [Example 56]
–	5.69e-09 M	–	> 2e-05 M	19.9 nM	Cc1ccccc1-c1ccc(-c2nc(-c3ccc(CNC(C)(C)C(=O)O)cc3)no2)cc1C(F)(F)F [Example 57]
–	3.39e-09 M	–	5.22e-06 M	4.87 nM	CCC(NCc1ccc(-c2noc(-c3ccc(-c4ccccc4C)c(C(F)(F)F)c3)n2)cc1)C(=O)O (centres unmarked) [Example 58]
–	1.15e-09 M	–	2.02e-07 M	3.47 nM	Cc1ccccc1-c1ccc(-c2nc(-c3ccc(CNCC(C)C(=O)O)cc3)no2)cc1C(F)(F)F (centres unmarked) [Example 63]
–	4.82e-09 M	–	2.56e-06 M	7.53 nM	Cc1ccccc1-c1ccc(-c2nc(-c3ccc(CNC(C)(CO)C(=O)O)cc3)no2)cc1C(F)(F)F (centres unmarked) [Example 65]
–	3.45e-09 M	–	4.49e-06 M	28.5 nM	Cc1ccccc1-c1ccc(-c2nc(-c3ccc(CN[C@@H](C)C(=O)O)cc3)no2)cc1C(F)(F)F [Example 67]
–	2.47e-09 M	–	7.57e-06 M	20.5 nM	Cc1ccccc1-c1ccc(-c2nc(-c3ccc(CN[C@H](C)C(=O)O)cc3)no2)cc1C(F)(F)F [Example 68]
